Usually melting point stands for the temperature of the solid-liquid transition.

Non-standard residues stand in square brackets, D forms with d. Residues, ends and D or L forms follow the SMILES beside them. *: point of attachment. Npys = O=[N+]([O-])c1cccnc1S*; Mpa = O=C(O)CCS

From a melting point compilation (Tetko et al.; mined from patent text by program, amines drawn as free bases though some values may be those of a salt) come the findings set out here.

In turn, `CCNc1nc(C)c(-c2ccnc(Nc3ccc4c(c3)OCO4)n2)s1` gave a melting point of 194 to 195 °C.
On to `N#Cc1c(F)cc(OCc2ccsc2)cc1OC(C(=O)O)c1ccccc1Cl` (racemic), for which the melting point fell in the range of 152 to 153 °C.
Take `O=C(CC1CCCCC1)Nc1n[nH]c(-c2ccc(F)cc2)c1-c1ccncc1`: the melting point was 296 to 300 °C.
In the case of `COc1ccc(-c2cc(=Nc3c(C)cc(C)cc3C)n(C)c(N3CCN(C(=O)c4ccc(F)cc4)CC3)n2)cc1OC`, the melting point was in the range of 117 to 121 °C.
The compound `Cc1cccc(-c2ccccc2NC(=N)N(C)C)c1` showed a melting point of 116 °C.
For the compound `CSc1nc(=O)n(-c2ccc(Cl)c(C(=O)OC(C)C)c2)c(=O)n1C#N`, the melting point is 55 to 56 °C.
The value for `CC(C)(C)OC(=O)N1CC(O)C(NS(=O)(=O)c2ccc(Oc3ccccc3)cc2)C1` (centres undefined) was 98 to 99 °C; that for `COC(=O)CC(=O)c1ccc(O)cc1` was 90 to 92 °C; that for `CC(C)(C)OC(=O)Nc1ccc(C#Cc2ccccc2F)cc1NC(=O)CC(=O)c1cccc(C#N)c1` was 216 to 217 °C.
As for `CC(=O)Nc1ccnn(C)c1=O`, the melting point is 152 to 153 °C.
The compound `CNc1cc(Oc2ccc3c(C(=O)Nc4ccc(N5CCOCC5)c(C(F)(F)F)c4)cccc3c2)ncn1` had a melting point of 156 to 157 °C.
The value for `O=C(O)C=NOC(CCCc1ccc(Cl)cc1)c1ccc(OCc2ccc3ccccc3n2)cc1` (centres undefined) was 174 to 177 °C; that for `COc1ccc(COc2ccc(CSc3ccc(OCC(=O)O)c(C)c3)cc2)cc1` was 150 to 152 °C; that for `CNc1c(Cl)cc2c3c(cccc13)C(=O)N(C1CCN(C)CC1)C2=O` was 298 to 302 °C.
Under `CC1(C)OCc2cc(Cl)cc(C(=O)c3cn(C(c4ccccc4)(c4ccccc4)c4ccccc4)cn3)c2O1` stands 200 to 205 °C; under `COC(=O)C1=C(C)NC(C)=C(C(=O)OC)C1c1cccc(N)c1`, 214 to 215 °C.
The value for `CC1(CNCc2cc3cc(NC(=O)c4ccc(OCC5CC5)cc4)ccc3[nH]2)COC1` was 166 to 167 °C; that for `Cn1cc(CNC(=O)c2ccnc(N3CCN(Cc4ccc(F)cc4)C3=O)c2)cn1` was 165 to 166 °C; that for `CCCCCCCCCCCC(=O)N1CCN(CCO)CC1` was 38 to 40 °C.
Compound `CC(NC(=O)OCc1ccccc1)C(=O)NC1C(C(=O)O)OC(n2cnc3c(NC(=O)c4ccccc4)ncnc32)C1O` (centres undefined) returned a melting point of 154 to 156 °C.
`CC(C)(C)CC(C)(C)c1cc(Cc2cc(C(C)(C)C)cc(C(C)(C)C)c2O)c(O)c(-n2nc3ccccc3n2)c1`: the melting point came out at 137 °C.
The value for `Cc1cc(OCc2ccccc2)cc(C)c1CC(=O)O` was 149 to 150 °C; that for `Nc1ccccc1-c1cc2[nH]c3ccccc3c2c2c1C(=O)NC2=O` was > 300 °C.
For the compound `CC1CN(c2c(F)cc3c(=O)c(C(=O)O)cn(C4CC4)c3c2OC(F)F)CCN1` (centres undefined), the melting point lay within 223 to 225 °C.
For the compound `COc1nc(-c2ccc3c(c2)OCO3)c2cc3c(cc2n1)OCO3`, the melting point fell in the range of 216 to 223 °C.
With `CC(=O)OC1CSC(Oc2c(C)ccnc2-c2cccnc2)C(OC(C)=O)C1OC(C)=O` (centres undefined), the melting point is 143 °C.
With `CCc1cc2c(cc1C(CC)SCC(=O)O)OCO2` (centres undefined), the melting point was 88 to 89 °C.
The value for `C=C(F)CCc1cccc(C2(c3ccc(OC(F)F)cc3)N=C(N)N(C)C2=O)c1` (centres undefined) was 58 to 60 °C; that for `C#CC1CCC(c2ccc(C3CCC(CCC)CC3)cc2)CC1` (centres undefined) was 143 °C.
Under `O=C(O)/C=C(\CC(O)CCCCCCc1ccc(Cl)cc1Cl)C(=O)O` (centres undefined) stands 92 to 93 °C; under `CS(=O)(=O)Nc1cc([C@@H](O)CNC2CCN(c3ccc(NC(=O)CCC4CCCC4)cc3)CC2)ccc1O`, 82 to 90 °C.
Under `Cc1c(Cl)ccc2cc(C(F)(F)F)c(C(F)(F)F)nc12` stands 70 to 73 °C; under `CC(C)C[C@@H](C=O)NC(=O)[C@H](Cc1c[nH]cn1)NC(=O)[C@H](Cc1ccccc1)NC(=O)CCSSc1ncccc1[N+](=O)[O-]` ([Mpa](Npys)FHL-aldehyde), 101 to 105 °C; under `COc1ccc(C=C2SC(N3CCOCC3)=NC2=O)cc1-c1ccc(O)c(C23CC4CC(CC(C4)C2)C3)c1`, 339 to 343 °C.
`O=C(Nc1ccc(-n2nc(C(F)(F)F)cc2C(F)(F)F)cc1)c1cccnc1` came in with a melting point of 185 to 188 °C.
With `Cc1cc(Cn2nc(-c3ccccc3)oc2=O)cc(C)c1O`, the melting point is 135 °C.
`O=C(O)CCCCCOc1cccc2occc12` gave a melting point of 86 to 87 °C.
Consider `C=CCOc1c(N)cc2c(C)cc(=O)oc2c1C`, for which the melting point lay within 146 to 147 °C.
`O=C(Cc1ccccn1)OC(=O)Cc1ccccn1`: the melting point lay within 105 to 106 °C.
In turn, `CCCCOCCOc1ccc(-c2ccc(N3CCCCCC3)c(C=C(C)C(=O)OC)c2)cc1` had a melting point of 86 to 89 °C.
Compound `CC(C)NC(=O)C1CC(=O)N(Cc2ccccc2)C1` (centres undefined) returned a melting point of 122 to 124 °C.
In turn, `O=S(=O)(c1[nH]c(-c2ccc(Cl)cc2)c(Br)c1Br)C(F)(F)F` registered a melting point of 165 to 168 °C.
Under `CCSc1nnnn1-c1ccc(Cl)cc1F` stands 76 to 79 °C; under `CC(C)=C[C@@H](OC(=O)C=C(C)N[C@@H](C)c1cccc2ccccc12)C(Cl)(Cl)Cl`, 209 to 210 °C.
Compound `COc1ccc(N2CCN(CCC3OCCc4c(Br)cccc43)CC2)cc1` (centres undefined) displayed a melting point of 105 to 106 °C.
The value for `COc1ccc(C(=O)NCCc2cccs2)cc1` was 109 to 111 °C; that for `COC(CC(=O)O)C(O)=Nc1cc(Cl)cc(Cl)c1` (centres undefined) was 125 to 126 °C; that for `NS(=O)(=O)c1cc(C(=O)O)cc(NCc2ccco2)c1Oc1ccccc1` was 219 to 220 °C.
Compound `CNc1nc(-c2ccncc2)n[nH]1` displayed a melting point of 228 to 230 °C.
Under `COc1ccc(Nc2ccc3cc(O)ccc3c2)cc1` stands 152 to 153 °C; under `Sc1nc2cc3c(cc2[nH]1)COCO3`, 288 to 289 °C; under `COc1cccc(C2(N(C)C)CCC(C(O)Cc3ccccc3)CC2)c1` (centres undefined), 72 °C.
`CCOC(=O)Cc1nnc(-c2ccccn2)[nH]c1=O` registered a melting point of 136 to 137 °C.
In turn, `Cc1cc2c(c(C)c1N)C(c1ccc(C(C)C)cc1)CO2` (centres undefined) returned a melting point of 53 to 55 °C.
The value for `COc1ccc(C=CC(=O)NNC(=O)C=Cc2ccccc2)cc1` was 263 °C; that for `O=c1c2ccccc2cc2sccn12` was 135 to 136 °C.
On to `COc1ccc(Oc2ccc3c(c2)C=C(C(=O)O)C(C(F)(F)F)O3)cc1Cl` (centres undefined), for which the melting point lay within 205 to 207 °C.
`Cc1ccc(C)n1-c1ccc(I)cc1F`: the melting point was 68 to 70 °C.
Turning to `CCC1OC(=O)Nc2ccc(-c3cccc(Cl)c3)cc21` (centres undefined), the melting point is 146 to 148 °C.
Turning to `C[Si](C)(C)ON1C(=O)CCC1=O`, the melting point is 55 to 57 °C.
Compound `CC1(C)COc2ccc(C[C@H](N)[C@H](O)c3cccc(Cl)c3)cc21` (racemic) gave a melting point of 83 to 86 °C.
`COc1cc(-n2cnc(CO)c2)cc(C(F)(F)F)c1` yielded a melting point of 133 to 134 °C.
Take `O=c1[nH]c2sc3ccc(Cl)cc3c2[nH]c1=O`: the melting point was > 340 °C.
Take `CCCc1c(OCCC(C)(C)C(=O)NCCCCc2cccnc2)ccc(C(C)=O)c1O`: the melting point was 80 to 83 °C.
Regarding `CC(Br)CCC(C)(N)P(O)O` (centres undefined), the melting point is 146 to 148 °C.
As to `O=c1oc2cc(O)c(F)cc2s1`, the melting point lay within 141 to 143 °C.
Compound `N#CN=C(Nc1cnc(Cl)c(N)c1)Oc1ccccc1` came in with a melting point of 219 to 220 °C.
`N#CCCNC(=S)C1=CC(CF)(CF)Oc2ccc([N+](=O)[O-])cc21` registered a melting point of 114 to 116 °C.
On to `CC(C)(C)c1ccc(C2C=C(c3ccccc3)NN2c2ccccc2)cc1` (centres undefined), for which the melting point was 150 to 153 °C.
The compound `O=C(O)C(Cl)=C(Cl)C(=O)N(Cc1ccco1)Cc1ccco1` yielded a melting point of 149 °C.
Compound `OCc1cc(Cc2ccccc2)cs1` gave a melting point of 33 to 34 °C.
Consider `Cc1oc(-c2ccccc2)nc1CCOc1ccc(C[C@@H](C(=O)O)N2CCN(c3ccccc3)CC2)cc1`, for which the melting point was 218 to 220 °C.
On to `CNS(=O)(=O)c1ccc(NC=C2C(=O)Nc3ccc4ncsc4c32)cc1CCOCCO`, for which the melting point was determined as 165 °C.
`Cc1c(F)c(NCc2ccccc2)cc2oc(=O)[nH]c12` came in with a melting point of 204 to 206 °C.
With `C=Cn1nnn(-c2cc(OC)c(Cl)cc2Cl)c1=O`, the melting point was in the range of 142 to 143 °C.
Under `CC(C)(C)OCOc1cc(NC(=O)NC(=O)c2ccc(C(N)=S)cc2)ccc1OCC(=O)OC(C)(C)C` stands 198 to 199 °C.
Take `COc1ccc(-c2ccccn2)c(NC(=O)CC(C)N)c1` (centres undefined): the melting point fell in the range of 185 to 188 °C.
In the case of `COc1ccc(NC(=O)c2nnn(Cc3ccc(F)cc3)c2C)cc1OC`, the melting point came to 120 °C.
Consider `CC(C)C[C@H](NC(=O)OCc1ccccc1)C(=O)NC(Cc1ccc(F)cc1)C(=O)CSCc1ccco1` (some centres undefined), for which the melting point was found to be 101 °C.
Under `O=C(O)c1ccc(C(=O)N2CCCc3ccccc32)cc1` stands 181 to 183 °C; under `O=C(Nc1ccc(NCc2ccccc2)cc1)C(=O)N1CCC(Cc2ccccc2)CC1`, 126 to 128 °C.
As for `O=C(O)c1cn(C2CSC2)c2c(F)c(F)c(F)cc2c1=O`, the melting point lay in the range of 172 to 175 °C.
Take `Cc1ccnc2[nH]c(C3CC3)nc12`: the melting point is 203 to 204 °C.
`CCCCCCNC(=O)C(CCC(=O)O)NC(=O)C(NC(=O)OC(C)(C)C)C(C)C` (centres undefined): the melting point was 63 to 65 °C.
The compound `O=C1c2ccccc2-n2cnc(-c3cccc(Cl)c3)c2[C@@H]2CCCN12` yielded a melting point of 242 to 243 °C.
Under `OCCCN1CCC(c2noc3cc(F)ccc23)CC1` stands 140 to 142 °C; under `CCNC(=O)c1cc2c(c(Cl)c1O)CCN(C(=O)OC(C)(C)C)C[C@@H]2c1ccc(O)cc1`, 120 to 125 °C.
`CNC(=S)C1c2cc([N+](=O)[O-])ccc2OC(C)(C)C1O` (centres undefined) came in with a melting point of 203 to 207 °C.
The compound `C=CCc1c2nc(C(=O)OC)cc(Cl)c2cc2c(=O)cc(C(=O)OCC)oc12` showed a melting point of 197 to 198 °C.
